Data reported in US11685912B2, “Affinity purification of glycosidase-cleaving enzymes” (TAKEDA PHARMACEUTICAL COMPANY LIMITED, priority 2018, dated 2023).

Key:
α-Gal A [1] = biological target: T1, α-Gal A (Homo sapiens, UniProt P06280); settings: 10 mM Tris vs 0 mM Tris
T1 sequence (P06280 32-429): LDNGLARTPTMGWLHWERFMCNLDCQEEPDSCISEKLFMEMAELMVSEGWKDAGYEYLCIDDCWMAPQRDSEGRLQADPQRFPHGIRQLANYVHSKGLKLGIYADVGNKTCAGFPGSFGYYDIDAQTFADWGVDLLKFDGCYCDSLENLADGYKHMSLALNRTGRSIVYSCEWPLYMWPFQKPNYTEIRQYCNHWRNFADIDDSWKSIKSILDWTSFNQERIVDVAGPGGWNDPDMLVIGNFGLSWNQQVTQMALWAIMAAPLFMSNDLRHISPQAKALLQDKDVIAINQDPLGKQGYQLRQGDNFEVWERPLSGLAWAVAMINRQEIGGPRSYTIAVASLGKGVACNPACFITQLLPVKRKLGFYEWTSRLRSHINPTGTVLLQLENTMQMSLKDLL
Experimental: FIG. 1 depicts Thermal Stability curves of α-Gal A at 0 mM (blue) and 10 mM (red) Tris buffer.

α-Gal A [2] = biological target: T1, α-Gal A; settings: buffer comprising Tris at 150 mM

α-Gal A thermal stability increase (α-Gal A [1]): 3 °C | elution of α-Gal A from the affinity resin (α-Gal A [2]): effectively eluted
Structure (SMILES): NC(CO)(CO)CO [Tris, tris(hydroxymethyl)aminomethane]
